Reference: paper PMC3951324, “Side Chain Hydrophobicity Modulates Therapeutic Activity and Membrane Selectivity of Antimicrobial Peptide Mastoparan-X” (PLoS ONE, 2014)
Ends that are not written are not given here.

Columns and labels:
[1] = obtained via tryptophan fluorescence measurements; cited from earlier work
[2] = Mode of peptide-membrane interaction gauged by ITC; format: physicochemical; conditions: 20 mM POPC∶POPG (3∶1) LUVs (8 mM for OAMPX) injected 38×1 µL into 100 µM peptide, 37°C, triplicates
Experimental: Lipid stock solutions of POPC and POPG were prepared in chloroform∶methanol (9∶1). Mixtures of POPC∶POPG (3∶1) were prepared and the organic solvent was evaporated under a gentle stream of nitrogen. The lipid films were kept in vacuum (P<0.1 Pa) overnight in order to remove the residual solvent. Buffer containing 10 mM HEPES and 100 mM sodium chloride (pH 7.4) was added to the lipid films, and they were hydrated for 60 min followed by extrusion through 100 nm using an Avanti mini-extruder. Dynamic Light Scattering (DLS, Brookhaven Instrument Corporation, ZetaPALS) was used for measuring the liposome size distribution. The effective lipid concentration was determined by inductively coupled plasma atomic emission spectroscopy (ICP-AES Vista AX, Varian).
The nature of the peptides' membrane interaction was studied as a function of lipid/peptide ratio (L/P) by ITC (iTC200, Microcal). All experiments were conducted by injection of 20 mM LUVs into 100 µM peptide solution. For OAMPX, 8 mM LUVs were used. The experiments were conducted as 38×1 µL injections, T = 37°C, and the speed of the stirrer was 1000 rpms. All titrations were conducted in triplicates.

[3] = test system: human red blood cells (RBCs); assay: Haemolysis assay; format: cell-based
Source text: All Fmoc (9H-fluoren-9-yl-methyloxycarbonyl) L-amino acids and HATU (1-[Bis(dimethylamino)methylene]-1H-1,2,3-triazolo[4,5-b]pyridinium 3-oxid hexafluorophosphate, N-[(Dimethylamino)-1H-1,2,3-triazolo-[4,5-b]pyridin-1-ylmethylene]-N-methylmethanaminium hexafluorophosphate N-oxide) were purchased from GLS China (GL Biochem, Shanghai, China). Fmoc-2-amino-decanoic acid was obtained from Watanabe Chemical Industries, Ltd (Hiroshima, Japan). Lys and Trp were side-chain-protected as tert-butoxycarbonyl, Asn was sidechain protected with trityl. Tentagel resin was purchased from NovaBiochem (Merck, Darmstadt, Germany). TFA (trifluoroacetic acid), TIS (triisopropylsilane), HEPES (N-(2-hydroxyethyl)piperazine-N-(2-ethanesulfonic acid)), 2,4,6-collidine and pyrene were purchased from Sigma-Aldrich (Brøndby, Denmark). Pyridine, sodium hydroxide pellets and sodium chloride was purchased from J.T. Baker Chemicals (Phillipsburg, NJ, USA). Filter supports and Hamilton extrusion syringes, POPG (1-palmitoyl-2-oleoyl-sn-glycero-3-[phospho-rac-(1-glycerol)] sodium salt), and POPC (1-palmitoyl-2-oleoyl-sn-glycero-3-phosphocholine) were purchased from Avanti Polar Lipids (Alabaster, AL). All compounds were used without further purification. Membrane filters for extrusion (100 nm pore size, polycarbonate) were purchased from Whatman (Maidstone, UK). Cuvettes (4×10 mm, quartz, Suprasil) were purchased from Hellma (Müllheim, Germany). Purified human erythrocytes for the haemolysis studies were provided by Bioneer (Hørsholm, Denmark), and were stored at 4°C for a maximum of three days before use.
The assay was conducted as described in Etzerodt et al..

[4] = Pyrene-cmc assay (micelle/aggregate formation); format: physicochemical
Experimental: Fluorescence excitation spectra were collected using an Olis modernized SLM8000 fluorescence spectrophotometer equipped with single-grating emission and double-grating excitation monochromator. The fluorometer was equipped with photon counter detectors. Pyrene was used to probe micellation as it is sensitive to environment hydrophobicity. Peptides were incubated in concentrations of 0.1–1000 µM in 10 mM HEPES, 100 mM sodium chloride, pH 7.4 buffer containing 75 nM pyrene. Samples were incubated for 2 h at 60°C followed by incubation overnight at room temperature and kept in the dark until measured. Measurements were carried out at 37°C. Excitation spectra were collected using emission wavelength 390 nm and 16 nm emission slit sizes. Excitation spectra were scanned in range 310–350 nm with excitation slits sizes of 0.5 nm. The excitation spectrum shift denotes the formation of micelles/aggregates (hydrophobic cavity), which is gauged by intensity ratio R = I339/I333 [29],[30]. The plot of R versus the detergent/peptide concentration, c, measures the partitioning of pyrene into the formed micelles/aggregates. The intensity ratio is fitted using the sigmoidal function [drawing 1] , where R0 and ΔR denote the initial and change in intensity ratio, respectively. α and ci denote the normalized slope and peptide concentration at which curve inflection occurs, respectively. […]

[5] = test system: Escherichia coli, strain INV-α; assay: Determination of minimal inhibitory concentration (MIC); format: cell-based; conditions: LB medium, 37°C, 20 h, shaking, peptide 0.05–50 µM, absorbance 570 nm, triplicates
Experimental: (§1) A stock dilution series with ten points, ranging from 1 µM to 1 mM, was prepared in sterile PBS from freshly dissolved peptides. The dilution series was dispensed in triplicates in 96-deepwell microtiter plates (VWR Denmark, Herlev, Denmark), with 15 µl in each well. Multidispensing with electronic pipettes (Biohit, Tåstrup, Denmark) was used throughout. Lactococcus lactis, strain MG1363 (ATCC, LGC Standards AB, Boras, Sweden) and Escherichia coli, strain INV-α (Invitrogen, Nærum, Denmark) were grown in M9 (Sigma Aldrich, Brøndby, Denmark) and LB medium (Difco, BD Biosciences, Brøndby Denmark), respectively. A single colony was grown overnight at 30°C and 37°C for L.lactis and E.coli respectively. The next day, a fresh culture was started with a twenty-fold dilution of the cells and grown for exactly 60 min (optical density was approximately 0.4 at 570 nm). The cell culture was diluted (300 fold for L.lactis and 1000 fold for E.coli) before adding 150 µl to microtiter plates already containing 15 µl peptide solution and 135 µl fresh medium. […] Plates with L.lactis were sealed with lid and parafilm, and plates with E.coli were sealed with a gas-permeable tape (VWR Denmark, Herlev, Denmark). The plates were incubated at the respective temperatures for 20 hours with shaking (150 rpm). For each measurement, 100 µl of the cell culture was transferred to clear, flat-bottomed microtiter plates, and the absorbance at 570 nm was determined using a Victor3 plate reader (Perkin Elmer, Skovlunde, Denmark). The measurement was conducted in triplicates.

[6] = test system: Lactococcus lactis, strain MG1363; assay: as above; format: cell-based; conditions: strain MG1363, M9 medium, 30°C, 20 h, shaking; peptide 0.05–50 µM; absorbance 570 nm; triplicates
Experimental: as §1

For “INWKGIAAMAKKLL-NH2 [MPX, mastoparan X, reference compound]”, the “effective charge (previous result)” value [1] is listed as 1.7, the “endpoint of the reversible (secondary) process, lipid/peptide ratio L/P” value [2] is listed as ~21 and the “% haemolysis” value ([3]; human RBCs, 50 µM peptide) is listed as 15%. For the same substance, the “H5, concentration at which 5% haemolysis has been obtained” value ([3]; purified human erythrocytes, assay as in Etzerodt et al. [14]) was 18 ± 2 µM, the “Critical micelle concentration (cmc)” value ([4]; pyrene (75 nM) fluorescence excitation shift I339/I333, 10 mM HEPES, 100 mM NaCl, pH 7.4, peptide 0.1–1000 µM, 2 h 60°C then overnight RT, measured at 37°C, cmc = onset of sigmoid, triplicates) was >1000 µM and the cmc ([4]; pyrene assay, no shift in pyrene excitation spectrum in covered concentration range, pH 7.4, 37°C) was > 1 mM. For the same substance, the “MIC (E. coli)” value [5] was 8 ± 3 µM and the “MIC (L. lactis)” value [6] was 2.5 ± 0.5 µM.
